We go through seven compounds from patent publication US20220395451A1, “NOVEL SKIN CARE COMPOSITION” (BEIERSDORF AG, priority 2019, published 2022).

“And” between values parts separate entries of the source, which are not always exact repeats. Identical values can stand only once.

One assay relates to C. acnes strain C3. In words: Minimum inhibitory concentration (MIC) of cosmetic excipients, strain C3. Format: cell-based, Cutibacterium acnes. The following applies: % w/vol; anaerobic incubation 3 days at 37° C.; growth scored visually. Here is the method: (§1) In microbiology, the MIC is the lowest concentration of a chemical which prevents visible growth of bacterium. The resulted MIC value depends both on the microorganism and the test compound. The MIC is determined by preparing concentrations series of the test compound in vitro, incubating the solutions with the separate batches of cultured bacteria, and measuring the results using agar dilution or broth microdilution. For the experiments with C. acnes strains C3 and K8, media comprising yeast extract soy peptone and dextrose were used. The MIC is determined by turbidity.
(§2) A total of 125 cosmetic excipients were tested for their compatibility with C. acnes strains C3 and K8. Hydrophilic compounds were tested in a 96-well plate liquid broth format, poorly soluble compounds were pre-dissolved in DMSO before dilution in liquid broth and hydrophobic or solid compounds were tested in an agar well diffusion test assay. The different dilutions of the test excipients in media were prepared in Falcon tubes and then distributed in a deep well plate using a multistepper. Each well received 1.2 ml and was subsequently inoculated with 120 μl of C. acnes bacteria suspension (strain C3 and K8). From the deep well plate 200 μl were transferred in each well of a clear 96 well replicate plate. The leftover was discarded. The plates were then incubated anaerobically for 3 days at 37° C. Following incubation, the test plates were visually examined and wells were scored for growth or complete growth inhibition to define the minimum inhibitory concentration.
(§3) These excipients are listed in the below table with their compatibility values for C. acnes strains C3 and K8. The compatibility values represent the MIC value of the listed ingredients with the tested C. acnes strains. At this concentration [% w/vol] the tested compound starts interfering with the growth of the tested strains. The compounds can be used in formulations at concentrations below this concentration.

Another assay relates to C. acnes strain K8. As to the kind of experiment: Minimum inhibitory concentration (MIC) of cosmetic excipients, strain K8. Format: cell-based, Cutibacterium acnes. Particulars: % w/vol; anaerobic incubation 3 days at 37° C.; growth scored visually. Here is the method: as §1, §2, §3

For `CCCCCCC(O)CO` (stereo not shown) [caprylyl glycol], the “COMPATABILITY VALUE C3 (MIC)” value in the assay on C. acnes strain C3 and in the assay with C. acnes strain K8 was 0.18% each time. Consider `O=C(O)CC(O)(CC(=O)O)C(=O)O` [citric acid], for which the “COMPATABILITY VALUE C3 (MIC)” value in the assay on C. acnes strain C3 was determined as 0.33%; with C. acnes strain K8, 0.08%. As to `CCO` [ethanol], in the assay with C. acnes strain K8, the “COMPATABILITY VALUE C3 (MIC)” value is given as 3.75%.

On to `CC(CO)CO` [methylpropanediol], for which the “COMPATABILITY VALUE C3 (MIC)” value in the assay with C. acnes strain C3 and in the assay on C. acnes strain K8 was 4.00% in each case.

Turning to `CC(=O)Oc1c(C)c(C)c2c(c1C)CCC(C)(CCC[C@H](C)CCC[C@H](C)CCCC(C)C)O2` (stereo partly shown) [tocopheryl acetate], the “COMPATABILITY VALUE C3 (MIC)” value in the assay on C. acnes strain C3 and in the assay with C. acnes strain K8 was 1.00% each time. Citric acid/citrate: the “COM[…] C3 (MIC)” value in the assay with C. acnes strain C3 and in the assay with C. acnes strain K8 was 1.30% in each case. tocopherol: the “COMPATABILITY VALUE C3 (MIC)” value is 1.50% and 10.00% with C. acnes strain C3; 1.50% and 10.00% with C. acnes strain K8.
